# Source: patent US20230143932A1, “PIN6 PROTEINS FOR THE FORMATION OF NODULE-LIKE STRUCTURES” (University of Freiburg, priority 2021, published 2023)
# Key:
# Assay in all cases: Root organogenesis response to transient auxin treatment (pseudonodule count)
# Type in all cases: in vivo
# [1] = tested on: Hordeum vulgare cultivar Golden Promise; details: Hordeum vulgare (barley) roots, 50 μM for 1 hour, counted 7 days after treatment
# Experimental: (§1) In order to investigate the potential impact of auxin and cytokinin treatment on root organogenesis, seeds of the Medicago truncatula cultivar Jester, the Lotus japonicus ecotype Gifu, and the Hordeum vulgare cultivar Golden Promise were sterilized, and then seedlings were grown on FP media (without Nitrogen and Phosphorus) for 3, 7, and 2 days, respectively. Grown plants were transformed to FP media with either control treatment, 50 μM of 2,4-Dichlorophenoxyacetic acid (synthetic auxin), 100 nM of 6-Benzylaminopurine (synthetic cytokinin) or both of the hormones for 1 hour before moving to FP media. FIG. 1A-1C show the number of pseudonodules/Arrested Lateral roots (ALR) counted 7 days after control treatment, treatment with 2,4-Dichlorophenoxyacetic acid (2,4-D), 6-Benzylaminopurine (BAP), or both.
# [2] = tested on: Lotus japonicus ecotype Gifu; details: 50 μM for 1 hour, counted 7 days after treatment
# Experimental: as §1
# [3] = tested on: Medicago truncatula cultivar Jester; details: 50 μM for 1 hour, counted 7 days after treatment
# Experimental: as §1
structure (smiles),measurement,setting,value
"O=C(O)COc1ccc(Cl)cc1Cl [2,4-Dichlorophenoxyacetic acid]",pseudonodule formation compared with control plants,[1],increased pseudonodule formation
same,pseudonodule formation compared with control plants,[1]; listed as auxin,formation of pseudonodules
same,pseudonodule formation compared with control plants,[2],increased pseudonodule formation
same,pseudonodule formation compared with control plants,[3],increased pseudonodule formation
